Article PMC12163317, “The food effect on the pharmacokinetics of TQB3616 capsule in Chinse healthy subjects: a randomized, open-label, single-center, two-period, two-sequence crossover phase I clinical trial” (Frontiers in Pharmacology, 2025)

How the values were obtained:
[1] = system: HR+/HER2-breast cancer MCF-7 cells; design: method as in unpublished data; settings: in vitro; ref unpublished data; cited from earlier work
[2] = Safety analysis, adverse events (CTCAE version 5.0) in the food-effect trial; format: in vivo, human
From the text: The safety analysis utilized the safety data set (SS), comprising all subjects receiving TQB3616 with recorded safety assessments. The safety assessments indicators included adverse events, serious adverse events, laboratory tests (routine blood, blood biochemistry, urinalysis, and coagulation), vital signs ([…]), 12-lead electrocardiogram, and physical examination. The frequency, type, extent, and comorbid medications of all treatment-emergent adverse events (TEAEs) occurring during treatment were recorded systematically documented. For severity, adverse events were rated and documented using the National Cancer Institute-Common Terminology Criteria for Adverse Events (CTCAE) version 5.0. The Medical Dictionary for Regulatory Activities (MedDRA) was used to encode the classification of adverse events. Any adverse events observed during the trial were monitored until resolution, return to baseline levels, or stabilization the subject’s condition.

[3] = system: MCF-7 tumor; design: method as in unpublished data; settings: ref unpublished data, cited from earlier work
[4] = Food effect on pharmacokinetics of TQB3616 capsule, crossover phase I trial, plasma concentration by LC-MS/MS; format: in vivo, human; settings: for AUC_Extrap / t1/2 / λZ / AUC0-t / AUC0-∞ / Cmax: mean ± SD; for AUC0-t / AUC0-∞ / Cmax / Tmax: single oral 180 mg; for Tmax: median (min, max)
Method: This was a randomized, open-label, single-center, two-period, two-sequence crossover early phase I clinical trial to evaluate the food effect on the pharmacokinetics of TQB3616 capsules in healthy subjects. The trial was conducted at Affiliated Hospital of Changchun University of Chinese Medicine and the protocol was approved by the Ethics Committee of the Affiliated Hospital of Changchun University of Chinese Medicine (CCZYFYLL 2021-006). The ethical approval process of this study complied with the requirements of Good Clinical Practice (GCP), the Declaration of Helsinki and the relevant domestic laws and regulations. All subjects had provided written informed consent before the study.
Subjects were admitted to the research center 2 days prior to drug administration and randomly assigned to either Group A or Group B at a 1:1 ratio. Group A, subjects received the study drug under fasted condition in period one and under fed condition in period 2. Conversely, in Group B, subjects received the study drug under fed conditions in the first period and under fasting conditions in the second period. The study employed a crossover design, with a washout period of at least 19 days between the two treatment periods.
The study protocol mandated that subjects take the medication after an overnight fast lasting at least 10 h. In a fasted condition, subjects consumed a 180 mg TQB3616 capsule with 240 mL of warm water, ensuring they remained and fasted for an additional 4 h post-dose. In a fed condition, subjects consumed a 180 mg TQB3616 capsule with 240 mL of warm water after consuming a high-fat, high-calorie breakfast (approximately 800–1,000 kcal, Supplementary table) 30 min prior to adminstration, subjects began their breakfast and completed the meal within the next 30 min. Capsules were swallowed whole without chewing.
Pharmacokinetic (PK) samples were collected at specific times: 0 h (within 60 min prior to dosing), 1 h, 2 h, 4 h, 5 h, 5.5 h, 6 h, 6.5 h, 7 h, 7.5 h, 8 h, 12 h, 24 h, 48 h, 72 h, 120 h, 168 h and 264 h post-dosing, totaling 18 sampling points. At each scheduled time, approximately 3 mL of blood was collected with a pre-chilled EDTA-K2 tubes. After gentle 180° inversion (×4) for homogenization, samples were immediately transferred to an ice bath. All blood specimens were centrifuged at 3,500 rpm for 10 min within 30 min of collection. The obtained plasma was aliquoted and stored at −80°C ± 10°C until batch analysis.
(§1) Plasma concentrations of TQB3616 were quantified using a validated liquid chromatography-tandem mass spectrometry (LC-MS/MS) method. Calibration standards and quality control samples (K2-EDTA plasma matrix) were prepared using [D8]-TQB3616 as the internal standard. Protein precipitation extraction from 100 μL plasma was performed followed by chromatographic separation on a C18 column (50 × 2.1 mm, 1.7 μm). Mass transitions m/z 447.1→431.3 (TQB3616) and m/z 455.2→439.3 (IS) were monitored for quantification.
Phoenix WinNonlin (version 8.3.4) was used to calculate pharmacokinetic parameters, including: […] (Tmax), area under the curve (AUC) from time zero to the last measurable concentration (AUC0-t), AUC from time zero to observed infinity (AUC0- ∞ ), peak concentration (Cmax),terminal half-life of analyte in plasma (t1/2), terminal rate constant (λz), and extrapolated AUC percentage (AUCextrp (%)). Other statistical analyses were performed using SAS (version 9.4). All tests were considered statistically significant at p < 0.05.
Based on the Pharmacokinetics Parameter Set (PKPS), main parameters were summarized by fasting/fed groups using sample size, arithmetic mean, standard deviation, coefficient of variation, median, minimum, maximum, as well as geometric mean and geometric coefficient of variation.
For the food-effect equivalence analysis set (BES), a mixed-effects model analyzed natural log-transformed Cmax, AUC0-t, and AUC0- ∞ . […]

[5] = design: method as in unpublished data; settings: ref unpublished data, cited from earlier work
[6] = design: method as in unpublished data; settings: ref unpublished data; cited from earlier work
[7] = Stability of TQB3616 in LC-MS/MS method validation (K2-EDTA plasma matrix); format: in vitro ADME
Method: as §1
This study undertook a comprehensive validation of the LC-MS/MS methodology for quantifying TQB3616. The validated quantitative range for TQB3616 was established between 0.3 ng/mL and 300 ng/mL. […] Sample dilution integrity was confirmed at 20-fold dilution.

[8] = system: CDK4/6; design: method as in unpublished data; settings: preclinical; ref unpublished data; cited from earlier work
[9] = both periods, 16 subjects in safety set
[10] = coefficient of variation, equivalence analysis fed vs fasted

SMILES: CC(C)c1c2cc(-c3nc(Nc4ccc(N5CCNCC5)cn4)ncc3F)ccc2nn1C [TQB3616]
- inhibition of proliferation of MCF-7 cells [1]: selectively inhibits proliferation
- TEAE Abdominal discomfort, n (%) ([2]; Fasted): 7.42%
- TEAE Abdominal pain, n (%) ([2]; Fasted): 4.94%
- TEAE Blood bilirubin increased, n (%) ([2]; Fasted): 1.23%
- TEAE Blood triglycerides increased, n (%) ([2]; Fasted): 7.42%
- TEAE Diarrhea, n (%) ([2]; Fasted): 13.58%
- TEAE Nausea, n (%) ([2]; Fasted): 7.42%
- TEAE Protein total decreased, n (%) ([2]; Fasted): 1.23%
- TEAE Thrombocyte count decreased, n (%) ([2]; Fasted): 1.23%
- TEAE White blood cells urine positive, n (%) ([2]; Fasted): 2.47%
- TEAE emesis, n (%) ([2]; Fasted): 6.17%
- TEAE laboratory tests, n (%) ([2]; Fasted): 13.58%
- TEAE Abdominal discomfort, n (%) ([2]; Fed): 11.11%
- TEAE Abdominal pain, n (%) ([2]; Fed): 2.47%
- TEAE Blood bilirubin increased, n (%) ([2]; Fed): 1.23%
- TEAE Blood bilirubin unconjugated increased, n (%) ([2]; Fed): 1.23%
- TEAE Blood triglycerides increased, n (%) ([2]; Fed): 4.94%
- TEAE Diarrhea, n (%) ([2]; Fed): 12.35%
- TEAE Gastrointestinal Disorders, n (%) ([2]; Fed): 33.33%
- TEAE Head discomfort, n (%) ([2]; Fed): 1.23%
- TEAE Nausea, n (%) ([2]; Fed): 3.7%
- TEAE Nervous System Disorders, n (%) ([2]; Fed): 1.23%
- TEAE Protein total decreased, n (%) ([2]; Fed): 1.23%
- TEAE Red blood cells urine positive, n (%) ([2]; Fed): 1.23%
- TEAE Urinary occult blood positive, n (%) ([2]; Fed): 2.47%
- TEAE emesis, n (%) ([2]; Fed): 3.7%
- adverse events related to the drug ([2]; both periods): 77
- drug-related adverse events of grade II ([2]; both periods): two
- serious adverse events, deaths, unexpected serious adverse reactions ([2]; both periods): No serious adverse events, deaths, or unexpected serious adverse reactions occurred
- subjects with adverse events [2, 9]: 16
- total adverse events (AEs) [2, 9]: 81
- average time to spontaneous resolution of gastrointestinal reactions ([2]; fasted period (range: 0–10 h)): 3.2 h
- average time of occurrence of gastrointestinal reactions post-dosing ([2]; fasted period (range: 1.7–7.3 h)): 4.2 h
- average time to spontaneous resolution of gastrointestinal reactions ([2]; fed period (range: 0–9.8 h)): 2.2 h
- average time of occurrence of gastrointestinal reactions post-dosing ([2]; fed period (range: 2.1–8.4 h)): 4.3 h
- anti-tumor efficacy compared with Palbociclib ([3]; human MCF-7 xenograft model): comparable anti-tumor efficacy to Palbociclib at reduced dosage levels
- MCF-7 tumor growth ([3]; in vivo): suppresses MCF-7 tumor growth in vivo
- AUC_Extrap ([4]; Fasted (n = 11)): 7.57 ± 3.29%
- t1/2 ([4]; Fasted (n = 11)): 71.27 ± 11.83 h
- λZ ([4]; Fasted (n = 11)): 0.01 ± 0.002 h⁻¹
- AUC0-t ([4]; Fasted (n = 11)): 3,634.80 ± 2,174.18 h ^a ng/mL
- AUC0-∞ ([4]; Fasted (n = 11)): 3,920.86 ± 2,325.20 h ^a ng/mL
- Cmax ([4]; Fasted (n = 11)): 60.39 ± 37.17 ng/mL
- Tmax ([4]; Fasted (n = 11)): 6.0 (5.0, 24.0) h
- AUC0-t GeoMean ([4]; Fasted, n = 11): 3,303.72 h*ng/mL
- AUC0-∞ GeoMean ([4]; Fasted, n = 11): 3,584.79 h*ng/mL
- Cmax GeoMean ([4]; Fasted, n = 11): 48.47 ng/mL
- AUC_Extrap ([4]; Fed (n = 13)): 6.97 ± 2.90%
- t1/2 ([4]; Fed (n = 13)): 68.95 ± 10.68 h
- λZ ([4]; Fed (n = 13)): 0.01 ± 0.002 h⁻¹
- AUC0-t ([4]; Fed (n = 13)): 5305.30 ± 1948.11 h ^a ng/mL
- AUC0-∞ ([4]; Fed (n = 13)): 5710.59 ± 2,100.68 h ^a ng/mL
- Cmax ([4]; Fed (n = 13)): 75.39 ± 28.34 ng/mL
- Tmax ([4]; Fed (n = 13)): 7.0 (7.0, 12.0) h
- AUC0-t GeoMean ([4]; Fed, n = 13): 4792.51 ng·h/mL
- AUC0-∞ GeoMean ([4]; Fed, n = 13): 5130.98 ng·h/mL
- Cmax GeoMean ([4]; Fed, n = 13): 71.76 ng/mL
- AUC0-t CV [4, 10]: 26.51%
- AUC0-∞ CV [4, 10]: 26.07%
- Cmax CV [4, 10]: 53.42%
- AUC0-t Fed/Fasted Ratio (geometric mean ratio) ([4]; fasted as the reference): 145.06%
- AUC0-∞ Fed/Fasted Ratio (geometric mean ratio) ([4]; fasted as the reference): 143.13%
- Cmax Fed/Fasted Ratio (geometric mean ratio) ([4]; fasted as the reference): 148.04%
- AUC0-t ([4]; fasting): 3,634.80 ± 2,174.18 h·ng/mL
- AUC0-∞ ([4]; fasting): 3,920.86 ± 2,325.20 h·ng/mL
- increase of AUC0-t by food intake ([4]; fed compared with fasted): 45.95%
- increase of AUC0-∞ by food intake ([4]; fed compared with fasted): 45.65%
- rise in AUC with a meal ([4]; fed compared with fasted): 45%
- AUC0-t ([4]; fed): 5305.30 ± 1948.11 ng·h/mL
- AUC0-∞ ([4]; fed): 5710.59 ± 2,100.68 h·ng/mL
- postprandial increase in AUC ([4]; females): 69.9%
- postprandial increase in Cmax ([4]; females): 33.5%
- postprandial increase in AUC ([4]; males): 38.2%
- postprandial increase in Cmax ([4]; males): 20.9%
- time to steady-state plasma concentrations ([5]; continuous dosing): approximately 7 days
- exposure increase with dose escalation ([5]; dose range 20–150 mg, single administration): exposure increase ratio slightly exceeding the dose increase ratio
- preclinical toxicity findings [6]: gastrointestinal toxicity and hematological/serum biochemical abnormalities were observed at medium-to-high dose levels
- freeze-thaw stability ([7]; method validation): endured four freeze-thaw cycles
- stability at room temperature ([7]; method validation): at least 23.5 h
- long-term stability ([7]; −20°C): 89 days
- long-term stability ([7]; −80°C): 89 days
- inhibition of CDK4/6 kinase activity [8]: potent inhibitory effects
